Consider twelve compounds from patent US20250064941A1, “SIGLEC LIGANDS, CONJUGATES, AND METHODS OF USE THEREOF” (Osprey Biopharmaceuticals, Inc., priority 2023, published 2025).

SMILES strings stand for the structures.

Assay [1] deals with T1, human Siglec-2/CD22 protein (Homo sapiens, UniProt P20273).
T1 construct: purchased Acro Biosystems SI2-H82E3
T1 sequence (P20273 20-847): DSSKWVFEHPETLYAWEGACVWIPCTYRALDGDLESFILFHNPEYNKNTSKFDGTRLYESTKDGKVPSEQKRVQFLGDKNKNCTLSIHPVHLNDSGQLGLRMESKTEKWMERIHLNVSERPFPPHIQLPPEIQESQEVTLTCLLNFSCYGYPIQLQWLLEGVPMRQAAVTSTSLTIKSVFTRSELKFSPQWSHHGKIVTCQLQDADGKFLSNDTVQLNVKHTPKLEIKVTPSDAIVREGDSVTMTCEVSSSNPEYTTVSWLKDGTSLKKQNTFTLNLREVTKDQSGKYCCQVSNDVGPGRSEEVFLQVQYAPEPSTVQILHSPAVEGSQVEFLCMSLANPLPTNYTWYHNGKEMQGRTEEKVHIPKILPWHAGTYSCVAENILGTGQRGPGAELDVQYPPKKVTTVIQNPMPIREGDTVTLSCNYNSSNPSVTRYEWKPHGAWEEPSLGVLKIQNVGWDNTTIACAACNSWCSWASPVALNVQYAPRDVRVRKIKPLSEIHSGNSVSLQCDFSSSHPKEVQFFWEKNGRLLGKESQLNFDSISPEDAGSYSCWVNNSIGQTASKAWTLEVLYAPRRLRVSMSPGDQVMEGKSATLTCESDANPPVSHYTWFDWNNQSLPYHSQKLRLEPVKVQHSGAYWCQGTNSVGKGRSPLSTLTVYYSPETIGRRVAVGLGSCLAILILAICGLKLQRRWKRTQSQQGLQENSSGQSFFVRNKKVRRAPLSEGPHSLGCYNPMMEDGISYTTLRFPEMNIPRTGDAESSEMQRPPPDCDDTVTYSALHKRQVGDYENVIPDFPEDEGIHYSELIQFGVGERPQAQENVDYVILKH
The assay is described as follows: SPR binding affinity to human CD22. As to conditions: steady-state analysis. The gist of the method:
(§1)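 Steady-state fits gave the affinities. Before capture on a streptavidin surface, biotinylated CD22 had native sialic acids stripped (SialoExo, 4 hours, 37° C.). Running buffer: 10 mM HEPES pH 7.5, 150 mM NaCl, 0.05% Tween-20, 1% DMSO, with DMSO solvent correction.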
For orientation: In SPR one partner is held on a chip, and binding of the other changes the refractive index at the surface.

Assay [2] has as its target cynomolgus Siglec-2/CD22 (Macaca fascicularis, UniProt A0A2K5WCZ6). The assay is described as follows: biochemical. It is filed as binding. As to conditions: SPR, steady-state analysis; read-out: Affinity cyno CD22. An outline of the steps: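 SPR with desialylated (SialoExo, 4 h, 37° C.) cynomolgus CD22 amine-coupled to a CM5 chip. Running buffer 10 mM HEPES, 150 mM NaCl, 0.05% Tween-20, pH 7.5, 1% DMSO, with solvent correction; 120 s dissociation. Affinities from steady-state analysis.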

Assay [3] deals with T2, mouse Siglec-2-Fc-Avi (CD22) (Mus musculus, UniProt P35329).
T2 construct: made in house
T2 sequence (P35329 22-708 limits assumed): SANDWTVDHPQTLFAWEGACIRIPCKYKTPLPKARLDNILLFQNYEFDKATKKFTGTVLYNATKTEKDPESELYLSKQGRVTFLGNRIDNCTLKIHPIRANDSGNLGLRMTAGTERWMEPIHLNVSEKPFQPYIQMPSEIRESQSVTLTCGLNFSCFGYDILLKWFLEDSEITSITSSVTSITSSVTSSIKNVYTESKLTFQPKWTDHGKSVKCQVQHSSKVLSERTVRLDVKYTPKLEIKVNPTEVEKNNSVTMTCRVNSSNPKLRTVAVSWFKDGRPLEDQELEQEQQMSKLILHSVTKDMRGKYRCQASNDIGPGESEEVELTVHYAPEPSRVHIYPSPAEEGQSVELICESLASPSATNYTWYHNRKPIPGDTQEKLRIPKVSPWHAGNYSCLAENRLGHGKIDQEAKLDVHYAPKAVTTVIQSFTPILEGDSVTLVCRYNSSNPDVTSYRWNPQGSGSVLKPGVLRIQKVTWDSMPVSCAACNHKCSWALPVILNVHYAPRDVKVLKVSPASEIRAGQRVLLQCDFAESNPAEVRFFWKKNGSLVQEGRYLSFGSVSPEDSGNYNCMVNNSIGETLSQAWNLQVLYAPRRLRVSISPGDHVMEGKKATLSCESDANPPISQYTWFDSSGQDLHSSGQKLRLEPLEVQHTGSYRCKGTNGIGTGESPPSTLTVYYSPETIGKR
The assay is described as follows: SPR binding affinity to mouse CD22. As to conditions: steady-state analysis. The gist of the method: as §1

Sequence of cynomolgus Siglec-2/CD22 (A0A2K5WCZ6 entry or part of it): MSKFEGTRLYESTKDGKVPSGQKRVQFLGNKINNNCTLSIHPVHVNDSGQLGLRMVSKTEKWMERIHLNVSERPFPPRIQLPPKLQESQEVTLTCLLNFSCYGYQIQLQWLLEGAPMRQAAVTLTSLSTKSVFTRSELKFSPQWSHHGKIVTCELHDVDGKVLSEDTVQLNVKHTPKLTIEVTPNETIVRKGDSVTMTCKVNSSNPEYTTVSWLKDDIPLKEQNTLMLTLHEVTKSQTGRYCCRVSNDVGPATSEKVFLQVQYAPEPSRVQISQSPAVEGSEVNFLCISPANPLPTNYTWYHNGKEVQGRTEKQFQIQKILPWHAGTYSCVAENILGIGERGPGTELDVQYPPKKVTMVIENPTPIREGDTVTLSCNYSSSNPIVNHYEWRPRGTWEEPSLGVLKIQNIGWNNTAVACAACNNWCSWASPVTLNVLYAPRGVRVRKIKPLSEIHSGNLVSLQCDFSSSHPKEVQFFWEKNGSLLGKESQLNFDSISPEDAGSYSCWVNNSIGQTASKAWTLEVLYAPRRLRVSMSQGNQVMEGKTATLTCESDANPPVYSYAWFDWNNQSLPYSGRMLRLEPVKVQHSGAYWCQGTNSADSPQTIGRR

For the compound `C#CCOCCOCCO[C@]1(C(=O)O)C[C@H](O)[C@@H](NC(=O)CO)[C@H]([C@H](O)[C@H](O)CNC(=O)Cc2ccc(-c3cccc(O)c3)cc2)O1` [Compound 78, (2R,4S,5R,6R)-6-((1R,2R)-1,2-dihydroxy-3-(2-(3′-hydroxy-[1,1′-biphenyl]-4-yl)acetamido)propyl)-4-hydroxy-5-(2-hydroxyacetamido)-2-(2-(2-(prop-2-yn-1-yloxy)ethoxy)ethoxy)tetrahydro-2H-pyran-2-carboxylic acid], the Kd was less than 1 µM in assay [1], 1 to 10 µM in assay [2] and 1 to 10 µM in assay [3].

As for `C#CCOCCOCCO[C@]1(C(=O)O)C[C@H](O)[C@@H](NC(=O)CO)[C@H]([C@H](O)[C@H](O)CNC(=O)Cc2ccc(-c3ccccc3)nc2)O1` [Compound 79, (2R,4S,5R,6R)-6-((1R,2R)-1,2-dihydroxy-3-(2-(6-phenylpyridin-3-yl)acetamido)propyl)-4-hydroxy-5-(2-hydroxyacetamido)-2-(2-(2-(prop-2-yn-1-yloxy)ethoxy)ethoxy)tetrahydro-2H-pyran-2-carboxylic acid], the Kd in assay [1] was 1 to 10 µM; in assay [2], greater than 10 µM; in assay [3] it was greater than 10 µM.

Consider `C#CCOCCOCCO[C@]1(C(=O)O)C[C@H](O)[C@@H](NC(=O)CO)[C@H]([C@H](O)[C@H](O)CNC(=O)Cc2ccc(-c3cccc(C(=O)NC)c3)cc2)O1` [Compound 80, (2R,4S,5R,6R)-6-((1R,2R)-1,2-dihydroxy-3-(2-(3′-(methylcarbamoyl)-[1,1′-biphenyl]-4-yl)acetamido)propyl)-4-hydroxy-5-(2-hydroxyacetamido)-2-(2-(2-(prop-2-yn-1-yloxy)ethoxy)ethoxy)tetrahydro-2H-pyran-2-carboxylic acid], for which the Kd in assay [1], in assay [2] and in assay [3] was 1 to 10 µM each time.

`C#CCOCCOCCO[C@]1(C(=O)O)C[C@H](O)[C@@H](NC(=O)CO)[C@H]([C@H](O)[C@H](O)CNC(=O)Cc2ccc(-c3cccc(C#N)c3)cc2)O1` [Compound 81, (2R,4S,5R,6R)-6-((1R,2R)-3-(2-(3′-cyano-[1,1′-biphenyl]-4-yl)acetamido)-1,2-dihydroxypropyl)-4-hydroxy-5-(2-hydroxyacetamido)-2-(2-(2-(prop-2-yn-1-yloxy)ethoxy)ethoxy)tetrahydro-2H-pyran-2-carboxylic acid]: the Kd is 1 to 10 µM in assay [1], 1 to 10 µM in assay [2] and greater than 10 µM in assay [3].

For `C#CCOCCOCCO[C@]1(C(=O)O)C[C@H](O)[C@@H](NC(=O)CO)[C@H]([C@H](O)[C@H](O)CNC(=O)Cc2ccc(-c3cccnc3)cc2)O1` [Compound 82, (2R,4S,5R,6R)-6-((1R,2R)-1,2-dihydroxy-3-(2-(4-(pyridin-3-yl)phenyl)acetamido)propyl)-4-hydroxy-5-(2-hydroxyacetamido)-2-(2-(2-(prop-2-yn-1-yloxy)ethoxy)ethoxy)tetrahydro-2H-pyran-2-carboxylic acid], the Kd in assay [1] is 1 to 10 µM; in assay [2] it was greater than 10 µM; in assay [3], greater than 10 µM.

With `C#CCCOCCOCCO[C@]1(C(=O)O)C[C@H](O)[C@@H](NC(=O)CO)[C@H]([C@H](O)[C@H](O)CNC(=O)Cc2ccc(-c3ccc(O)cc3)cc2)O1` [Compound 83, (2R,4S,5R,6R)-2-(2-(2-(but-3-yn-1-yloxy)ethoxy)ethoxy)-6-((1R,2R)-1,2-dihydroxy-3-(2-(4′-hydroxy-[1,1′-biphenyl]-4-yl)acetamido)propyl)-4-hydroxy-5-(2-hydroxyacetamido)tetrahydro-2H-pyran-2-carboxylic acid], the results for the Kd in assay [1], in assay [2] and in assay [3] were less than 1 µM, 1 to 10 µM and 1 to 10 µM, respectively.

Take `C#CCOCCCCCCO[C@]1(C(=O)O)C[C@H](O)[C@@H](NC(=S)NC)[C@H]([C@H](O)[C@H](O)CNC(=O)Cc2ccc(Cl)cc2)O1` [Compound 84, (2R,4S,5R,6R)-6-((1R,2R)-3-(2-(4-chlorophenyl)acetamido)-1,2-dihydroxypropyl)-4-hydroxy-5-(3-methylthioureido)-2-((6-(prop-2-yn-1-yloxy)hexyl)oxy)tetrahydro-2H-pyran-2-carboxylic acid]: the results for the Kd in assay [1], in assay [2] and in assay [3] were less than 1 µM, 1 to 10 µM and 1 to 10 µM, respectively.

On to `C#CCOCCCCCCO[C@]1(C(=O)O)C[C@H](O)[C@@H](NC(=O)N(C)C)[C@H]([C@H](O)[C@H](O)CNC(=O)Cc2ccc(Cl)cc2)O1` [Compound 85, (2R,4S,5R,6R)-6-((1R,2R)-3-(2-(4-chlorophenyl)acetamido)-1,2-dihydroxypropyl)-5-(3,3-dimethylureido)-4-hydroxy-2-((6-(prop-2-yn-1-yloxy)hexyl)oxy)tetrahydro-2H-pyran-2-carboxylic acid], for which the Kd in assay [1] was less than 1 µM; in assay [2], less than 1 µM; in assay [3], 1 to 10 µM.

On to `C#CCOCCCCCCO[C@]1(C(=O)O)C[C@H](O)[C@@H](NC(=O)CC2CC2)[C@H]([C@H](O)[C@H](O)CNC(=O)Cc2ccc(Cl)cc2)O1` [Compound 88, (2R,4S,5R,6R)-6-((1R,2R)-3-(2-(4-chlorophenyl)acetamido)-1,2-dihydroxypropyl)-5-(2-cyclopropylacetamido)-4-hydroxy-2-((6-(prop-2-yn-1-yloxy)hexyl)oxy)tetrahydro-2H-pyran-2-carboxylic acid], for which the values for the Kd in assay [1], in assay [2] and in assay [3] were 1 to 10 µM, 1 to 10 µM and greater than 10 µM, respectively.

Take `C#CCOCCCCCCO[C@]1(C(=O)O)C[C@H](O)[C@@H](NC(=O)NC2CC2)[C@H]([C@H](O)[C@H](O)CNC(=O)Cc2ccc(Cl)cc2)O1` [Compound 89, (2R,4S,5R,6R)-6-((1R,2R)-3-(2-(4-chlorophenyl)acetamido)-1,2-dihydroxypropyl)-5-(3-cyclopropylureido)-4-hydroxy-2-((6-(prop-2-yn-1-yloxy)hexyl)oxy)tetrahydro-2H-pyran-2-carboxylic acid]: the Kd in assay [1], in assay [2] and in assay [3] was 1 to 10 µM in each case.

With `C#CCOCCCCCCO[C@]1(C(=O)O)C[C@H](O)[C@@H](NC(=O)C(F)(F)F)[C@H]([C@H](O)[C@H](O)CNC(=O)Cc2ccc(Cl)cc2)O1` [Compound 90, (2R,4S,5R,6R)-6-((1R,2R)-3-(2-(4-chlorophenyl)acetamido)-1,2-dihydroxypropyl)-4-hydroxy-2-((6-(prop-2-yn-1-yloxy)hexyl)oxy)-5-(2,2,2-trifluoroacetamido)tetrahydro-2H-pyran-2-carboxylic acid], the Kd in assay [1] is less than 1 µM; in assay [2] it was less than 1 µM; in assay [3], 1 to 10 µM.

`C#CCOCCCCCCO[C@]1(C(=O)O)C[C@H](O)[C@@H](NC(=O)COc2ccccc2)[C@H]([C@H](O)[C@H](O)CNC(=O)Cc2ccc(Cl)cc2)O1` [Compound 91, (2R,4S,5R,6R)-6-((1R,2R)-3-(2-(4-chlorophenyl)acetamido)-1,2-dihydroxypropyl)-4-hydroxy-5-(2-phenoxyacetamido)-2-((6-(prop-2-yn-1-yloxy)hexyl)oxy)tetrahydro-2H-pyran-2-carboxylic acid]: the Kd was 1 to 10 µM in assay [1], less than 1 µM in assay [2] and greater than 10 µM in assay [3].
